{"source": "ChEMBL document CHEMBL1201862", "about": "“PubChem BioAssay data set” (2004)", "experiment_in_all_cases": "inhibition of tumour cell growth, NCI panel, 48 h", "key": {"786-0": {"tested_on": "786-0"}, "A498": {"tested_on": "A498"}, "A549": {"tested_on": "A549"}, "ACHN": {"tested_on": "ACHN"}, "DLD-1": {"tested_on": "DLD-1"}, "DMS-273": {"tested_on": "DMS-273"}, "EKVX": {"tested_on": "EKVX"}, "HCC 2998": {"tested_on": "HCC 2998"}, "HCT-116": {"tested_on": "HCT-116"}, "HCT-15": {"tested_on": "HCT-15"}, "HOP-18": {"tested_on": "HOP-18"}, "HOP-62": {"tested_on": "HOP-62"}, "HT-29": {"tested_on": "HT-29"}, "KM-20L2": {"tested_on": "KM-20L2"}, "KM12": {"tested_on": "KM12"}, "LOX IMVI": {"tested_on": "LOX IMVI"}, "LXFL 529": {"tested_on": "LXFL 529"}, "M14": {"tested_on": "M14"}, "Malme-3M": {"tested_on": "Malme-3M"}, "NCI-H226": {"tested_on": "NCI-H226"}, "NCI-H23": {"tested_on": "NCI-H23"}, "OVCAR-3": {"tested_on": "OVCAR-3"}, "OVCAR-4": {"tested_on": "OVCAR-4"}, "OVCAR-5": {"tested_on": "OVCAR-5"}, "OVCAR-8": {"tested_on": "OVCAR-8"}, "SF-295": {"tested_on": "SF-295"}, "SF-539": {"tested_on": "SF-539"}, "SK-MEL-28": {"tested_on": "SK-MEL-28"}, "SK-MEL-5": {"tested_on": "SK-MEL-5"}, "SN12C": {"tested_on": "SN12C"}, "SNB-19": {"tested_on": "SNB-19"}, "SNB-78": {"tested_on": "SNB-78"}, "SR": {"tested_on": "SR"}, "SW-620": {"tested_on": "SW-620"}, "UACC-257": {"tested_on": "UACC-257"}, "UACC-62": {"tested_on": "UACC-62"}, "UO-31": {"tested_on": "UO-31"}, "XF498": {"tested_on": "XF498"}, "CCRF-CEM": {"tested_on": "CCRF-CEM"}, "COLO 205": {"tested_on": "COLO 205"}, "HL-60": {"tested_on": "HL-60"}, "HOP-92": {"tested_on": "HOP-92"}, "IGROV-1": {"tested_on": "IGROV-1"}, "K562": {"tested_on": "K562"}, "M19-MEL": {"tested_on": "M19-MEL"}, "MOLT-4": {"tested_on": "MOLT-4"}, "NCI-H460": {"tested_on": "NCI-H460"}, "NCI-H522": {"tested_on": "NCI-H522"}, "RPMI-8226": {"tested_on": "RPMI-8226"}, "RXF 393": {"tested_on": "RXF 393"}, "SF-268": {"tested_on": "SF-268"}, "SK-MEL-2": {"tested_on": "SK-MEL-2"}, "SK-OV-3": {"tested_on": "SK-OV-3"}, "SNB-75": {"tested_on": "SNB-75"}, "TK-10": {"tested_on": "TK-10"}, "U-251": {"tested_on": "U-251"}}, "note": "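In this assay, cells in 96-well plates receive the compound at five concentrations for 48 hours. Endpoints are linearly interpolated between the surrounding concentrations. GI50 marks 50% less growth.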 Calls of active or inactive are those of the source. Cut-off read from the data, not from the text of the source: active = GI50 up to about 1.1 µM and inactive = higher."}
{"compound": "O=C1C(CN2CCCCC2)CCCC1CN1CCCCC1", "note": "(stereo not given)", "values": [{"measurement": "GI50", "setting": "786-0", "result": "7.29 µM (inactive)"}, {"measurement": "GI50", "setting": "A498", "result": "> 100 µM (inactive)"}, {"measurement": "GI50", "setting": "A549", "result": "> 100 µM (inactive)"}, {"measurement": "GI50", "setting": "ACHN", "result": "19.6 µM (inactive)"}, {"measurement": "GI50", "setting": "DLD-1", "result": "15.9 µM (inactive)"}, {"measurement": "GI50", "setting": "DMS-273", "result": "29.6 µM (inactive)"}, {"measurement": "GI50", "setting": "EKVX", "result": "19.9 µM (inactive)"}, {"measurement": "GI50", "setting": "HCC 2998", "result": "> 100 µM (inactive)"}, {"measurement": "GI50", "setting": "HCT-116", "result": "14.5 µM (inactive)"}, {"measurement": "GI50", "setting": "HCT-15", "result": 14.2, "unit": "µM"}, {"measurement": "GI50", "setting": "HOP-18", "result": "14.7 µM (inactive)"}, {"measurement": "GI50", "setting": "HOP-62", "result": "> 100 µM (inactive)"}, {"measurement": "GI50", "setting": "HT-29", "result": "18.8 µM (inactive)"}, {"measurement": "GI50", "setting": "KM-20L2", "result": "13.3 µM (inactive)"}, {"measurement": "GI50", "setting": "KM12", "result": "> 60.3 µM (inactive)"}, {"measurement": "GI50", "setting": "LOX IMVI", "result": "25.5 µM (inactive)"}, {"measurement": "GI50", "setting": "LXFL 529", "result": "15.6 µM (inactive)"}, {"measurement": "GI50", "setting": "M14", "result": "32.3 µM (inactive)"}, {"measurement": "GI50", "setting": "Malme-3M", "result": "5.82 µM (inactive)"}, {"measurement": "GI50", "setting": "NCI-H226", "result": "> 100 µM (inactive)"}, {"measurement": "GI50", "setting": "NCI-H23", "result": "> 45.1 µM (inactive)"}, {"measurement": "GI50", "setting": "OVCAR-3", "result": "17.1 µM (inactive)"}, {"measurement": "GI50", "setting": "OVCAR-4", "result": "> 10 µM (inactive)"}, {"measurement": "GI50", "setting": "OVCAR-5", "result": "> 59 µM (inactive)"}, {"measurement": "GI50", "setting": "OVCAR-8", "result": "14.9 µM (inactive)"}, {"measurement": "GI50", "setting": "SF-295", "result": "> 100 µM (inactive)"}, {"measurement": "GI50", "setting": "SF-539", "result": "> 43.2 µM (inactive)"}, {"measurement": "GI50", "setting": "SK-MEL-28", "result": "13.7 µM (inactive)"}, {"measurement": "GI50", "setting": "SK-MEL-5", "result": "> 31.6 µM (inactive)"}, {"measurement": "GI50", "setting": "SN12C", "result": "26.2 µM (inactive)"}, {"measurement": "GI50", "setting": "SNB-19", "result": "> 100 µM (inactive)"}, {"measurement": "GI50", "setting": "SNB-78", "result": "22.8 µM (inactive)"}, {"measurement": "GI50", "setting": "SR", "result": "8.93 µM (inactive)"}, {"measurement": "GI50", "setting": "SW-620", "result": "9.89 µM (inactive)"}, {"measurement": "GI50", "setting": "UACC-257", "result": "24.9 µM (inactive)"}, {"measurement": "GI50", "setting": "UACC-62", "result": "> 40.6 µM (inactive)"}, {"measurement": "GI50", "setting": "UO-31", "result": "> 42.2 µM (inactive)"}, {"measurement": "GI50", "setting": "XF498", "result": "18.4 µM (inactive)"}]}
{"compound": "CN1Cc2cc3c(cc2-c2ccccc21)OCO3", "values": [{"measurement": "GI50", "setting": "786-0", "result": "> 100 µM (inactive)"}, {"measurement": "GI50", "setting": "A498", "result": "> 100 µM (inactive)"}, {"measurement": "GI50", "setting": "A549", "result": "> 100 µM (inactive)"}, {"measurement": "GI50", "setting": "ACHN", "result": "> 100 µM (inactive)"}, {"measurement": "GI50", "setting": "CCRF-CEM", "result": "> 100 µM (inactive)"}, {"measurement": "GI50", "setting": "COLO 205", "result": "> 100 µM (inactive)"}, {"measurement": "GI50", "setting": "DLD-1", "result": "> 100 µM (inactive)"}, {"measurement": "GI50", "setting": "DMS-273", "result": "> 100 µM (inactive)"}, {"measurement": "GI50", "setting": "EKVX", "result": "> 100 µM (inactive)"}, {"measurement": "GI50", "setting": "HCC 2998", "result": "> 100 µM (inactive)"}, {"measurement": "GI50", "setting": "HCT-116", "result": "> 100 µM (inactive)"}, {"measurement": "GI50", "setting": "HL-60", "result": "> 100 µM (inactive)"}, {"measurement": "GI50", "setting": "HOP-18", "result": "> 100 µM (inactive)"}, {"measurement": "GI50", "setting": "HOP-92", "result": "> 100 µM (inactive)"}, {"measurement": "GI50", "setting": "HT-29", "result": "> 100 µM (inactive)"}, {"measurement": "GI50", "setting": "IGROV-1", "result": "> 100 µM (inactive)"}, {"measurement": "GI50", "setting": "K562", "result": "> 100 µM (inactive)"}, {"measurement": "GI50", "setting": "KM-20L2", "result": "91.6 µM (inactive)"}, {"measurement": "GI50", "setting": "KM12", "result": "> 100 µM (inactive)"}, {"measurement": "GI50", "setting": "LOX IMVI", "result": "> 100 µM (inactive)"}, {"measurement": "GI50", "setting": "LXFL 529", "result": "> 100 µM (inactive)"}, {"measurement": "GI50", "setting": "M14", "result": "> 100 µM (inactive)"}, {"measurement": "GI50", "setting": "M19-MEL", "result": "> 100 µM (inactive)"}, {"measurement": "GI50", "setting": "MOLT-4", "result": "> 100 µM (inactive)"}, {"measurement": "GI50", "setting": "NCI-H23", "result": "> 100 µM (inactive)"}, {"measurement": "GI50", "setting": "NCI-H460", "result": "> 100 µM (inactive)"}, {"measurement": "GI50", "setting": "NCI-H522", "result": "> 100 µM (inactive)"}, {"measurement": "GI50", "setting": "OVCAR-3", "result": "> 100 µM (inactive)"}, {"measurement": "GI50", "setting": "OVCAR-4", "result": "> 100 µM (inactive)"}, {"measurement": "GI50", "setting": "OVCAR-5", "result": "> 100 µM (inactive)"}, {"measurement": "GI50", "setting": "OVCAR-8", "result": "> 100 µM (inactive)"}, {"measurement": "GI50", "setting": "RPMI-8226", "result": "> 100 µM (inactive)"}, {"measurement": "GI50", "setting": "RXF 393", "result": "> 100 µM (inactive)"}, {"measurement": "GI50", "setting": "SF-268", "result": "> 100 µM (inactive)"}, {"measurement": "GI50", "setting": "SF-295", "result": "> 100 µM (inactive)"}, {"measurement": "GI50", "setting": "SF-539", "result": "> 100 µM (inactive)"}, {"measurement": "GI50", "setting": "SK-MEL-28", "result": "> 100 µM (inactive)"}, {"measurement": "GI50", "setting": "SK-MEL-2", "result": "> 100 µM (inactive)"}, {"measurement": "GI50", "setting": "SK-MEL-5", "result": "> 100 µM (inactive)"}, {"measurement": "GI50", "setting": "SK-OV-3", "result": "> 10 µM (inactive)"}, {"measurement": "GI50", "setting": "SN12C", "result": "> 100 µM (inactive)"}, {"measurement": "GI50", "setting": "SNB-19", "result": "> 100 µM (inactive)"}, {"measurement": "GI50", "setting": "SNB-75", "result": "> 100 µM (inactive)"}, {"measurement": "GI50", "setting": "SNB-78", "result": "> 100 µM (inactive)"}, {"measurement": "GI50", "setting": "SR", "result": "> 100 µM (inactive)"}, {"measurement": "GI50", "setting": "SW-620", "result": "> 100 µM (inactive)"}, {"measurement": "GI50", "setting": "TK-10", "result": "> 100 µM (inactive)"}, {"measurement": "GI50", "setting": "U-251", "result": "> 100 µM (inactive)"}, {"measurement": "GI50", "setting": "UACC-257", "result": "> 100 µM (inactive)"}, {"measurement": "GI50", "setting": "UACC-62", "result": "> 100 µM (inactive)"}, {"measurement": "GI50", "setting": "UO-31", "result": "> 100 µM (inactive)"}, {"measurement": "GI50", "setting": "XF498", "result": "> 100 µM (inactive)"}]}
